Holding throughout (assay type): cell-based
The test system of data set [1] is human hepatocellular carcinoma Hep3B. The data set can be described thus: Cell morphology observation under phase contrast microscope, Hep3B. Particulars: 48 h, Bortezomib 5 nM, M1 virus 0.001 moi, FIG. 1. As to the method:
(§1) a) Cell culture: human hepatocellular carcinoma Hep3B and Huh 7 were grown in DMEM complete medium containing 10% FBS, 100 U/ml penicillin and 0.1 mg/ml streptomycin; all cell strains were cultured and passaged in a closed incubator at a constant temperature of 37° C. (95% relative humidity) with 5% CO2, and the growth was observed under inverted microscope. The cells were passaged about every 2 to 3 days, and the cells in the logarithmic phase were used in the formal experiment.
(§2) b) Cell treatment and morphological observation: cells in the logarithmic growth phase and the DMEM complete culture medium (containing 10% fetal bovine serum and 1% double antibody) were selected to prepare cell suspension, and the cells were inoculated in a 24-well culture plate at a density of 2.5×10^4/well.

For data set [2], the system named is human hepatocellular carcinoma Huh 7. The data set can be described thus: MTT cell viability, Bortezomib and M1 virus, 48 h. Particulars: Huh-7, 48 h, read-out: relative cell viability of tumor cells. As to the method:
a) Inoculating cells, and drug administering treatment: cells in the logarithmic growth phase and the DMEM complete culture medium (containing 10% fetal bovine serum and 1% double antibody) were selected to prepare cell suspension, and were inoculated in a 96-well culture plate at a density of 4×10^3/well. 12 h later, the cells were completely adhered to the wall. The cells were divided into control group without medicament nor virus treatment, Bortezomib treatment group, M1 infection group and Bortezomib/M1 combined group.
b) MTT reacted with intracellular succinate dehydrogenase: after culturing for 48 h, 20 μl (5 mg/ml) of MTT was added to each well and incubated for 4 h, at this time, the granular bluish violet formazan crystals formed in living cells could be observed under microscope.
c) Dissolving formazan granules: the supernatant was carefully removed, DMSO 100 μl/well was added to dissolve the crystal, shaked in a microoscillator for 5 min, and then detect the optical density (OD value) of each well with wavelength of 570 nm on the enzyme-linked detector. The experiment was repeated for 3 times in each group. Cell viability=OD value of medicament treatment group/OD value of control group×100%.
The EC50 shift of the two curves was calculated, that is, the EC50 shift in FIG. 2, the larger the difference value was, the more significant the medicament synergized.

For data set [3] the test system is unchanged. The data set is described as follows: Cell morphology observation under phase contrast microscope, Huh 7. As to conditions: 48 h, Bortezomib 5 nM, M1 virus 0.1 moi, FIG. 1. As to the method: as §1, §2
For data set [4] the test system is unchanged. The data set is described as follows: MTT cell viability, various proteasome inhibitors and M1 virus, 72 h. As to the method: a) Inoculating cells, and drug administering treatment: cells in the logarithmic growth phase and the DMEM complete culture medium (containing 10% fetal bovine serum and 1% double antibody) were selected to prepare cell suspension, and were inoculated in a 96-well culture plate at a density of 4×10^3/well. 12 h later, the cells were completely adhered to the wall. The cells were divided into control group without medicament nor virus treatment, proteasome inhibitor group (including CEP-18770, MLN-9708, ONX-0912), M1 infected group and proteasome inhibitor/M1 combined group.
b) MTT reacted with intracellular succinate dehydrogenase: after culturing for 72 h, 20 μl (5 mg/ml) of MTT was added to each well and incubated for 4 h, at this time, the granular bluish violet formazan crystals formed in living cells could be observed under microscope.
c) Dissolving formazan granules: the supernatant was carefully removed, DMSO 100 μl/well was added to dissolve the crystal, vibrate in a microoscillator for 5 min, and then detect the optical density (OD value) of each well with wavelength of 570 nm on the enzyme-linked detector. Cell viability=OD value of medicament treatment group/OD value of control group x 100%.

Where [5] appears, read: Homo sapiens, Huh-7, 72 h, read-out: relative cell viability of tumor cells.

The values below come from patent US20210228660A1, “USE OF PROTEASOME INHIBITOR AND […] PREPARATION OF ANTI-TUMOR MEDICAMENT” (GUANGZHOU VIROTECH PHARMACEUTICAL CO., LTD., priority 2018, published 2021).

As for `CC(C)C[C@H](NC(=O)[C@H](Cc1ccccc1)NC(=O)c1cnccn1)B(O)O` [Bortezomib], the “morphological changes of cells” value in data set [1] and in data set [3] was “no significant change in cell morphology” throughout. The viability at 0.005 µM in data set [2] worked out at 99.7%.

As for Ixazomib [MLN-9708], in data set [4] (FIG. 4B, Huh 7, MTT, 72 h, MLN-9708 5 nM, M1 virus MOI=0.1), the “relative cell viability of tumor cells” value came out at 77.7%.

`CC(C)C[C@H](NC(=O)[C@@H](NC(=O)c1cccc(-c2ccccc2)n1)[C@@H](C)O)B(O)O` [CEP-18770, Delanzomib]: in data set [4] (setting [5]), the viability at 0.005 µM came out at 105%.

For the compound `COC[C@H](NC(=O)c1cnc(C)s1)C(=O)N[C@@H](COC)C(=O)N[C@@H](Cc1ccccc1)C(=O)[C@@]1(C)CO1` [ONX-0912, Oprozomib], the viability at 0.05 µM in data set [4] (setting [5]) is 70%.

For orientation: viability means a read-out of living cells in per cent, often relative to untreated cells.
